Assay results taken from patent EP1557429A1, “Site-directed coupling of proteins” (Vectron Therapeutics AG, priority 2004, dated 2005).

Test system: A431 cells
Assay: Binding of FITC-labeled EGFm1 to A431 cells, flow cytometry
Format: cell-based
Protocol: • Fig. 1: Schematic representation of the strategy to isolate side-chain deaminated ligands (A) or side-chain decarboxylated ligands (B). Randomization in approach A is performed by using sets of amino acids (X) devoid of lysines or lysines and arginines. Randomization in approach B is performed by using sets of amino acids (X) devoid of aspartic acids (Asp) and glutamic acids (Glu). • Fig. 2: Schematic representation of the strategy of side-chain elimination/addition (A) or side-chain group reduction (B), both examplified for elimination or reduction of cysteine residues. In these examples randomization is performed by using sets of amino acids (X) devoid of cysteines (Cys). Both approaches can be applied equally for any other amino acid residues. • Fig. 3: Amino acid sequences of EGF of various species. The positions of lysine and arginine residues is highlighted by grey boxes. • Fig. 4: (A) IMAC purification of recombinant HisEGFm1 from bacterial periplasm. Eluted fractions were analyzed on a 20% SDS-Tricine gel (HisEGFm1 is indicated by an arrowhead). Recombinant human EGF was included as control. (B) Size exclusion chromatography of purified EGFwt and HisEGFm1 on a superose 12 column. The positions of BSA (67 kDa), Ovalbumin (43 kDa) and Myoglobin (17 kDa) are indicated by arrows. (C) Competition of binding of fdEGF to A431 by EGFwt or HisEGFm1. • Fig. 5: Binding of FITC-labeled EGFm1 to A431. A) FITC-labeled HisEGFm1 was incubated with A431 at varying concentrations and binding was analyzed by flow cytometry (0, cells without EGFm1; 1, 17 ng/ml; 2 50 ng/ml; 3, 170 ng/ml). B) Competition of FITC-labeled EGFm1 at 170 ng/ml without (1) or with (2) excess amounts of unlabelled EGFwt. C) Control experiments with BSA. • Fig. 6: (A) Binding of EGFm1 liposomes to A431 cells.
EGFwt or EGFm1 (50 µg) were diluted to a conc. of 500 µg/ml and the pH was adjusted to 9.0 with carbonate buffer pH 9.5. FITC was added at a 10-fold molar excess and incubated overnight at 4°C. […] Fluorescence intensity was determined using a fluorescence spectrophotometer (Victor^2; Wallac, Freiburg, Germany). […]

For “Fluorescein-labeled EGFm1: EGFm1 labeled with fluorescein-isothiocyanate at the N-terminal amino group (NSDSECPLSHDGYCLHDGVCMYIEALDQYACNCVVGYIGERCQYSDLSWWELS; not fully specified; left off: small tags and cut ends)”, the “competition of binding to A431” value (excess amounts of unlabeled EGFwt, BSA as control) was “could be competed with excess amounts of unlabeled EGFwt but not with BSA”, the “binding to A431 reached saturation at” value (fluorescein-labeled protein, flow cytometry) was “approximately 50 ng/ml” and the “binding to A431 cells” value (fluorescein-labeled protein, varying concentrations) was “strong and concentration-dependent binding”.
